Values quoted from earlier work as cited in patent publication US8952066B2, “Pharmaceutical/cosmetic, E.G., anti-acne compositions comprising at least one naphthoic acid compound, benzoyl peroxide and at least one film-forming agent” (Galderma Research & Development, priority 2007, dated 2015).
Like-named read-outs stand apart in the source and are kept apart here. One block for each compound: values may come before it.

How the values were obtained:
[1] = 40° C.
[2] = in presence of the benzoyl peroxide-based formulation

Compound: O=C(OOC(=O)c1ccccc1)c1ccccc1 [benzoyl peroxide]
Degradation time ([1]; in PEG 400 (0.5 mg/g)): 1.4 days | Degradation time ([1]; in ethanol): 29 days | Degradation time ([1]; in propylene glycol): 53 days

Degradation of the retinoid (in words) ([2]; for 24 hours): no degradation
Compound: COc1ccc(-c2ccc3cc(C(=O)O)ccc3c2)cc1C12CC3CC(CC(C3)C1)C2 [adapalene, 6-[3-(1-adamantyl)-4-methoxyphenyl]-2-naphthoic acid]

Degradation of the retinoid ([2]; in 2 hours): 50% | Degradation of the retinoid ([2]; in 24 hours): 95%
Compound: CC1=C(/C=C/C(C)=C/C=C/C(C)=C/C(=O)O)C(C)(C)CCC1 [tretinoin]
